Read-outs that look alike come from different tables or passages of the source.
Tests used:
[1] = system: CD4+ T cells from HIV-1-infected individuals; test: Cell viability (CellTiter-Blue, Zombie Violet) of ex vivo treated CD4+ T cells; format: cell-based, human; details: at the indicated concentrations (up to 500 nM)
Text: FIGS. 15 A-G depict the structural formulae for AZ505, AZ506, and AZ391, and the reactivation of latent HIV-1 with SMYD2 inhibitor X2 (AZ391) in CD4^+ T cells from HIV-1 infected individuals. (A) Structures of each compound are shown. (B) Intracellular HIV-1 mRNA levels in CD4^+ T cells, obtained from an infected individual (#1036) and treated ex vivo with AZ391, JQ1 or a combination of both, in indicated concentrations, presented as fold induction relative to DMSO control. Activation with αCD3/αCD28-Dynabeads was performed as control. (C) Flow cytometry of T-cell activation markers CD69 and CD25 in the same experiment. For each treatment group, CD69^+ (left) and CD25^+ (right). Shown as percentage of positive cells relative to αCD3/αCD28-treated cells (D) Cell viability as measured by CellTiter-Blue® Cell Viability assay (Promega) and Zombie Violet Fixable Viability kit (BioLegend) and presented as percentage of DMSO control treated cells. Data points indicate average of three technical replicates of donor #1036. (E-G) Same experiments as in b-d but performed with CD4^+ T cells obtained from three additional individuals (2013, 2185, 2511) with a single concentration of AZ391 (500 nM). In f and g, average of the three biological replicates (±SD) is show. For (F), for each treatment group, CD69^+ (left) and CD25^+ (right).

[2] = system: J-Lat A72 cell line (LTR-GFP); details: A72 J-Lat cells; for activation of GFP expression / reactivation of the HIV-LTR: single agent
Description: J-Lat (clones A2 and A72) cell lines were cultured as described in Jordan et al., EMBO J. 2003 Apr. 15:22(8):1868-77. Human αCD3/αCD28 beads (Life Technologies) were used at a concentration of 1 bead/cell ratio. JQ1 (Sigma-Aldrich) was used at a concentration of 0.1-10 μM. Ingenol 3,20-dibenzoate (Sigma-Aldrich) was used at concentrations of 5-200 nM, and SAHA (Sigma-Aldrich) was used at concentrations of 110 nM, 330 nM, or 1 μM.
HEK293T cells were obtained from the American Type Culture Collection. J-Lat (clones A2, A72, and 5A8) cell lines were described (Chan et al., 2013; Jordan et al., 2003). HEK293T cells were cultured in DMEM supplemented with 10% FBS, 1% L-glutamine and 1% penicillin-streptomycin (Life Technologies). J-Lat cells were cultured in RPMI supplemented with 10% FBS, 1% L-glutamine and 1% penicillin-streptomycin (Life Technologies). […] TNFα (Sigma-Aldrich) was used at 0.5-10 ng/ml. Human αCD3/αCD28 Dynabeads (Invitrogen) were used at a 1 bead/cell ratio. JQ1 (Cayman Chemical) was used at 0.1-10 μM. Ingenol 3,20-dibenzoate (Santa Cruz Biotechnology) was used at 5-200 nM, and SAHA (Merck) was used at 110 nM, 330 nM, or 1 μM. Phorbol 12-myristate 13-acetate (PMA) (Sigma) was used at 10 nM and ionomycin (Sigma) was used at a concentration of 500 nM. UNC926 (Tocris Bioscience) was used at a concentration of 10 nM-100 μM. AZ505. AZ506, and AZ391 were used at a concentration of 10 nM-10 μM.
ShRNA-expressing lentiviral vectors were purchased from Sigma-Aldrich. The pLKO.1 vector containing a scrambled shRNA was used as control. […] J-Lat 5A8, A72 and A2 cells were spininfected with virus (1 ng of p24 per 10^6 cells) containing shRNAs against KMTs or nontargeting control shRNAs and were selected with puronycin (2 μg/ml: Sigma). After 7 days of selection, cells were treated with the indicated concentration of drugs. The percentage of GFP^+ cells was determined after 18 h using a MACSQuant VYB FACS analyzer (Miltenyi Biotech GmbH). Cell viability was monitored by forward-and-side scatter analysis. Analysis was conducted on 3×10,000 live cells per condition. Data were analyzed using FlowJo 9.5 (Tree Star).

[3] = system: CD4+ T cells from HIV-1-infected individuals; test: T-cell activation markers CD69 and CD25, flow cytometry; format: cell-based, human; details: at the indicated concentrations (up to 500 nM)
Text: FIGS. 15 A-G depict the structural formulae for AZ505, AZ506, and AZ391, and the reactivation of latent HIV-1 with SMYD2 inhibitor X2 (AZ391) in CD4^+ T cells from HIV-1 infected individuals. (A) Structures of each compound are shown. (B) Intracellular HIV-1 mRNA levels in CD4^+ T cells, obtained from an infected individual (#1036) and treated ex vivo with AZ391, JQ1 or a combination of both, in indicated concentrations, presented as fold induction relative to DMSO control. Activation with αCD3/αCD28-Dynabeads was performed as control. (C) Flow cytometry of T-cell activation markers CD69 and CD25 in the same experiment. For each treatment group, CD69^+ (left) and CD25^+ (right). Shown as percentage of positive cells relative to αCD3/αCD28-treated cells (D) Cell viability as measured by CellTiter-Blue® Cell Viability assay (Promega) and Zombie Violet Fixable Viability kit (BioLegend) and presented as percentage of DMSO control treated cells. Data points indicate average of three technical replicates of donor #1036. (E-G) Same experiments as in b-d but performed with CD4^+ T cells obtained from three additional individuals (2013, 2185, 2511) with a single concentration of AZ391 (500 nM). In f and g, average of the three biological replicates (±SD) is show. For (F), for each treatment group, CD69^+ (left) and CD25^+ (right). […]

N#Cc1cc(C(=O)NCCCN2CCCC2)cc(-c2ccccc2N2CCN(CCc3c[nH]c4ccccc34)CC2)c1 [AZ391]
cell viability [1]: no impact on cell viability | reactivation of HIV-LTR, combination effect ([2]; co-treatment with JQ1): more than additive effects | reactivation of HIV-LTR, combination effect ([2]; co-treatment with SAHA): less | reactivation of HIV-LTR, combination effect ([2]; co-treatment with ingenol 3,20-dibenzoate): practically no combination effect | GFP+ cells ([2]; high concentrations (5 and 10 μM)): up to 30% | activation of GFP expression / reactivation of the HIV-LTR [2]: activated GFP expression at high concentrations | activation of GFP expression / reactivation of the HIV-LTR ([2]; listed as X2): the same effect was observed in A72 cells | global T-cell activation (CD69, CD25) [3]: No increase in global T-cell activation

Reference: patent publication US11807852B2, “Compositions and methods for reactivating latent immunodeficiency virus” (The J. David Gladstone Institutes, a testamentary trust …, priority 2014, dated 2023)
